Assay results from ChEMBL document CHEMBL5370610, “Urotensin II Receptor Modulation with 1,3,4-Benzotriazepin-2-one Tetrapeptide Mimics” (J Med Chem, 2023).
Activity calls are given as the source filed them. The calls are words filed in the database; no cut-off is given here.

Assays:
Aorta [1] = assay: Ex vivo modulatory effect on URP-induced contractile activity in Sprague-Dawley rat aortic ring at 10^-6 M pretreated for 30 mins followed by URP addition (reference value: 100 +/- 8 %); format: functional; conditions: 0.5 h, dose 1 10^-6M
HEK293 [2] = assay: Agonist activity at RLucII-tagged Galpha-i (unknown origin) expressed in HEK293 cells co-expressing human UT/GFP10-tagged G-gamma assessed as activation of Galpha-i at 10^-5 M by BRET assay relative to hUII; format: cell-based; conditions: dose 1.0 10^-5M
[3] = Agonist activity at RLucII-tagged Galpha-i (unknown origin) expressed in HEK293 cells co-expressing human UT/GFP10-tagged G-gamma assessed as activation of Galpha-i by BRET assay; format: cell-based
[4] = target: T1, Guanine nucleotide-binding protein G(q) subunit alpha (Homo sapiens, UniProt P50148); assay: Agonist activity at RLucII-tagged Galpha-q (unknown origin) expressed in HEK293 cells co-expressing human UT/GFP10-tagged G-gamma assessed as activation of Galpha-q by BRET assay; format: cell-based
T1 sequence (P50148 whole entry): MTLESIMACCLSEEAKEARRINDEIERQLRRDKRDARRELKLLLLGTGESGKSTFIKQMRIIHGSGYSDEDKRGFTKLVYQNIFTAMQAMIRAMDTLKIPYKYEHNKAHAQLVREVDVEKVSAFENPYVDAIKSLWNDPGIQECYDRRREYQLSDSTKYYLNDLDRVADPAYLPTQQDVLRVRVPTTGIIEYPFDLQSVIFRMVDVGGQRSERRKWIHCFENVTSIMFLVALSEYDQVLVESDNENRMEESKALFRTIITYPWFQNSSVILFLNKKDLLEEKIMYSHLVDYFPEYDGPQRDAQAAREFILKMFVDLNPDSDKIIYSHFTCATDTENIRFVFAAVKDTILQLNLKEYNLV

[5] = target: T2, Guanine nucleotide-binding protein G(q) subunit alpha (Homo sapiens) (UniProt P50148); assay: Agonist activity at RLucII-tagged Galpha-q (unknown origin) expressed in HEK293 cells co-expressing human UT/GFP10-tagged G-gamma assessed as activation of Galpha-q at 10^-5 M by BRET assay relative to hUII; format: cell-based; conditions: dose 1.0 10^-5M
T2 sequence (whole entry): T1 sequence (P50148 whole entry)

[6] = Agonist activity at RLucII-tagged Galpha-13 (unknown origin) expressed in HEK293 cells co-expressing human UT/GFP10-tagged G-gamma assessed as activation of Galpha-13 by BRET assay; format: cell-based
Beta-arrestin-1 [7] = target: T3, Beta-arrestin-1 (Homo sapiens, UniProt P49407); assay: Agonist activity at RLucII/GFP10-tagged beta-arrestin-1 (unknown origin) expressed in HEK293 cells co-expressing human UT assessed as beta-arrestin recruitment at 10^-5 M by BRET assay relative to hUII; format: cell-based; conditions: filed as agonist, dose 1.0 10^-5M
Aorta [8] = assay: Ex vivo modulatory effect on hUII-induced contractile activity in Sprague-Dawley rat aortic ring (reference value: 8.37 +/- 0.08); format: functional, tissue-based
HEK293 [9] = assay: Agonist activity at RLucII-tagged Galpha-13 (unknown origin) expressed in HEK293 cells co-expressing human UT/GFP10-tagged G-gamma assessed as activation of Galpha-13 at 10^-5 M by BRET assay relative to hUII; format: cell-based; conditions: filed as agonist, dose 1.0 10^-5M
Aorta [10] = assay: Ex vivo modulatory effect on URP-induced contractile activity in Sprague-Dawley rat aortic ring (reference value: 8.06 +/- 0.27); format: functional, tissue-based
Beta-arrestin-1 [11] = target: T3, Beta-arrestin-1; assay: Agonist activity at RLucII/GFP10-tagged beta-arrestin-1 (unknown origin) recruitment expressed in HEK293 cells co-expressing human UT assessed as beta-arrestin recruitment by BRET assay; format: cell-based
Aorta [12] = assay: Ex vivo modulatory effect on hUII-induced contractile activity in Sprague-Dawley rat aortic ring at 10^-6 M pretreated for 30 mins followed by hUII addition (reference value: 100 +/- 9 %); format: functional; conditions: 0.5 h, dose 1 10^-6M
[13] = target: T1, Guanine nucleotide-binding protein G(q) subunit alpha; assay: Antagonist activity at URP-activated RLucII-tagged Galpha-q (unknown origin) expressed in HEK293 cells co-expressing human UT/GFP10-tagged G-gamma by BRET assay (reference value: 7.33 +/- 0.10); format: cell-based
[14] = target: T1, Guanine nucleotide-binding protein G(q) subunit alpha; assay: Antagonist activity at hUII-activated RLucII-tagged Galpha-q (unknown origin) expressed in HEK293 cells co-expressing human UT/GFP10-tagged G-gamma by BRET assay (reference value: 8.26 +/- 0.09); format: cell-based
[15] = target: T2, Guanine nucleotide-binding protein G(q) subunit alpha (Homo sapiens); assay: Antagonist activity at URP-activated RLucII-tagged Galpha-q (unknown origin) expressed in HEK293 cells co-expressing human UT/GFP10-tagged G-gamma at 10^-6 M by BRET assay (reference value: 100 +/- 4 %); format: cell-based; conditions: filed as antagonist, dose 1.0 10^-6M
[16] = target: T2, Guanine nucleotide-binding protein G(q) subunit alpha (Homo sapiens); assay: Agonist activity at RLucII-tagged Galpha-q (unknown origin) expressed in HEK293 cells co-expressing human UT/GFP10-tagged G-gamma assessed as activation of Galpha-q at 10^-5 M by BRET assay; format: cell-based; conditions: dose 1.0 10^-5M
HEK293 [17] = assay: Antagonist activity at hUII-activated RLucII-tagged Galpha-q (unknown origin) expressed in HEK293 cells co-expressing human UT/GFP10-tagged G-gamma at 10^-6 M by BRET assay (reference value: 100 +/- 4 %); format: cell-based; conditions: filed as antagonist, dose 1.0 10^-6M
HEK293 [18] = assay: Antagonist activity at hUII-activated RLucII-tagged Galpha-i (unknown origin) expressed in HEK293 cells co-expressing human UT/GFP10-tagged G-gamma at 10^-6 M by BRET assay (reference value: 100 +/- 5 %); format: cell-based; conditions: filed as antagonist, dose 1.0 10^-6M
HEK293 [19] = assay: Antagonist activity at URP-activated RLucII-tagged Galpha-i (unknown origin) expressed in HEK293 cells co-expressing human UT/GFP10-tagged G-gamma at 10^-6 M by BRET assay (reference value: 100 +/- 7 %); format: cell-based; conditions: filed as antagonist, dose 1.0 10^-6M
HEK293 [20] = assay: Agonist activity at RLucII-tagged Galpha-i (unknown origin) expressed in HEK293 cells co-expressing human UT/GFP10-tagged G-gamma assessed as activation of Galpha-i at 10^-5 M by BRET assay; format: cell-based; conditions: dose 1.0 10^-5M
[21] = Antagonist activity at hUII-activated RLucII-tagged Galpha-i (unknown origin) expressed in HEK293 cells co-expressing human UT/GFP10-tagged G-gamma by BRET assay (reference value: 7.41 +/- 0.15); format: cell-based
[22] = Antagonist activity at URP-activated RLucII-tagged Galpha-i (unknown origin) expressed in HEK293 cells co-expressing human UT/GFP10-tagged G-gamma by BRET assay (reference value: 7.10 +/- 0.19); format: cell-based
Aorta [23] = assay: Ex vivo modulatory effect on hUII-induced contractile activity in Sprague-Dawley rat aortic ring at 10^-6 M pretreated for 30 mins followed by hUII addition; format: functional, tissue-based; conditions: dose 1.0 10^-6M
Aorta [24] = assay: Ex vivo modulatory effect on URP-induced contractile activity in Sprague-Dawley rat aortic ring at 10^-6 M pretreated for 30 mins followed by URP addition; format: functional, tissue-based; conditions: dose 1.0 10^-6M

T3 sequence (P49407 whole entry): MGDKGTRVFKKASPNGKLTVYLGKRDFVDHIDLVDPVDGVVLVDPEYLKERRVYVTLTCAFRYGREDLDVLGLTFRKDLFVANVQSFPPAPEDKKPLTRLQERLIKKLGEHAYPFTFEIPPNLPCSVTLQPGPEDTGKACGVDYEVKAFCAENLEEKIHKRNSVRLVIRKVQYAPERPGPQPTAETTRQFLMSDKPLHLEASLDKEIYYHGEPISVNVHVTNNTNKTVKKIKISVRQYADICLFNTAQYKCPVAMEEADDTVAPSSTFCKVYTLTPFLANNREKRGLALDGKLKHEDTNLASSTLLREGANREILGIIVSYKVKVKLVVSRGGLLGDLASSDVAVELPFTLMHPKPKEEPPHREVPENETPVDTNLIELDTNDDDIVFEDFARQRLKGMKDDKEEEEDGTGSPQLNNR

Row | Structure (SMILES) | Emax at 1 µM (Aorta [1]) [%] | Emax (HEK293 [2]; filed as agonist) [%] | EC50 [3] [nM] | EC50 [4] [nM] | EC50 [6] [nM] | Emax (Beta-arrestin-1 [7]) [%] | EC50 (Aorta [8]) [nM] | Emax (HEK293 [9]) [%] | EC50 (Aorta [10]) [nM] | EC50 (Beta-arrestin-1 [11]) [nM] | Emax at 1 µM (Aorta [12]) [%] | EC50 [13] [nM] | EC50 [14] [nM] | Emax [15] [%] | Activity [16] | Emax (HEK293 [17]) [%] | other results
1 | CN(Cc1ccccc1)C(=O)c1ccc2c(c1)N(Cc1ccc(-c3ccccc3)cc1)C(=O)N(CCCCN)N=C2/C=C/c1ccc(O)cc1 | 120 | 73 | 589 | > 10000 | 178 | 82 | 0.955 | 129 | 3.31 | 117 | 61 |  |  |  |  |  | Emax [5]: 37%
2 | CC(C)[C@H](NC(=O)[C@@H]1CSSC[C@H](NC(=O)[C@H](CC(=O)O)NC(=O)[C@@H]2CCCN2C(=O)[C@@H](NC(=O)[C@@H](N)CCC(=O)O)[C@@H](C)O)C(=O)N[C@@H](Cc2ccccc2)C(=O)N[C@@H](Cc2c[nH]c3ccccc23)C(=O)N[C@@H](CCCCN)C(=O)N[C@@H](Cc2ccc(O)cc2)C(=O)N1)C(=O)O [UROTENSIN-II] |  |  | 18.2 | 13.8 | 16.2 |  |  |  |  | 20.4 |  |  |  |  |  |  | 
3 | NCCCCN1N=C(/C=C/c2ccc(O)cc2)c2ccc(C(=O)NCCCc3ccccc3)cc2N(Cc2ccc(-c3ccccc3)cc2)C1=O | 161 | 75 | 1170 | > 10000 | 16.2 | 108 | 14.5 | 104 | 1.55 | 851 | 123 |  |  |  |  |  | Emax [5]: 26%
4 | NCCCCN1N=C(CCc2ccc(O)cc2)c2ccc(C(=O)NCCOc3ccccc3)cc2N(Cc2ccc(-c3ccccc3)cc2)C1=O | 83 | 51 | > 10000 |  | 288 | 198 | 6.17 | 215 | 16.2 | 1780 | 197 | 34.7 | 6.92 | 81 | inactive | 95 | 
5 | CC(C)[C@H](NC(=O)[C@@H]1CSSC[C@H](NC(=O)[C@H](C)N)C(=O)N[C@@H](Cc2ccccc2)C(=O)N[C@@H](Cc2c[nH]c3ccccc23)C(=O)N[C@@H](CCCCN)C(=O)N[C@@H](Cc2ccc(O)cc2)C(=O)N1)C(=O)O |  |  |  | 8.91 |  |  |  |  |  |  |  |  |  |  |  |  | Emax ([5]; filed as agonist): 101%
6 | COc1ccc(/C=C/C2=NN(CCCCN)C(=O)N(Cc3ccc(-c4ccccc4)cc3)c3cc(C(=O)NCc4ccccc4)ccc32)cc1 | 27 |  |  |  | 81.3 | 98 | 0.661 | 122 | 8.13 | 9.33 | 85 | 43.7 | 13.2 | 79 | inactive | 90 | Emax (HEK293 [18]): 80%; Emax (HEK293 [19]): 63%; Activity (HEK293 [20]): inactive; EC50 [21]: 11.7 nM; EC50 [22]: 148 nM
7 | NCCCCN1N=C(CCc2ccc(O)cc2)c2ccc(C(=O)NCCCc3ccccc3)cc2N(Cc2ccc(-c3ccccc3)cc2)C1=O | 112 | 45 | > 10000 |  | 21.9 | 165 | 1.02 | 119 | 4.07 | 174 | 143 | 18.6 | 5.89 | 76 | inactive | 65 | 
8 | COc1ccc(/C=C/C2=NN(CCCCN)C(=O)N(Cc3ccc(-c4ccccc4)cc3)c3cc(C(=O)NCCOc4ccccc4)ccc32)cc1 |  | 50 | > 10000 | > 10000 | 45.7 | 78 |  | 102 |  | 0.49 |  |  |  |  |  |  | Activity (Aorta [23]): Active; Emax ([5]; filed as agonist): 52%; Activity (Aorta [24]): Active
9 | NCCCCN1N=C(/C=C/c2ccc(O)cc2)c2ccc(C(=O)NCC(c3ccccc3)c3ccccc3)cc2N(Cc2ccc(-c3ccccc3)cc2)C1=O | 56 |  |  |  | 200 | 76 | 5.5 | 198 | 44.7 | 95.5 | 77 | 25.1 | 6.92 | 103 | inactive | 83 | Emax (HEK293 [18]): 95%; Emax (HEK293 [19]): 89%; Activity (HEK293 [20]): inactive; EC50 [21]: 53.7 nM; EC50 [22]: 102 nM
10 | CN(Cc1ccccc1)C(=O)c1ccc2c(c1)N(Cc1ccc(-c3ccccc3)cc1)C(=O)N(CCCCN)N=C2CCc1ccc(O)cc1 | 71 |  |  |  | 302 | 194 | 6.76 | 152 | 43.7 | 933 | 70 | 28.2 | 8.51 | 92 | inactive | 94 | Emax (HEK293 [18]): 89%; Emax (HEK293 [19]): 91%; Activity (HEK293 [20]): inactive; EC50 [21]: 41.7 nM; EC50 [22]: 178 nM
11 | COc1ccc(/C=C/C2=NN(CCCCN)C(=O)N(Cc3ccc(-c4ccccc4)cc3)c3cc(C(=O)NCCCc4ccccc4)ccc32)cc1 | 77 |  | > 10000 | > 10000 | 20.9 | 98 | 0.741 | 103 | 3.72 | 1200 | 252 |  |  |  |  |  | Emax (HEK293 [2]): 18%; Emax ([5]; filed as agonist): 54%
12 | NCCCCN1N=C(/C=C/c2ccc(O)cc2)c2ccc(C(=O)NCc3ccccc3)cc2N(Cc2ccc(-c3ccccc3)cc2)C1=O | 58 |  | > 10000 |  | 10.5 | 275 | 1.1 | 115 | 13.5 | 1230 | 121 | 17 | 7.08 | 111 | inactive | 85 | Emax (HEK293 [2]): 30%
